US9617256B2 (priority 2007, dated 2017)
In brackets after ≈: the same amount, converted by molar mass. Like-named read-outs stand apart in the source and are kept apart here.

Assays:
[1] = test system: APAE001 (ATCC27853); experiment: MIC broth microdilution, APAE001; assay type: cell-based, P. aeruginosa; conditions: Pseudomonas aeruginosa, ATCC27853, read-out: MIC APAE001, APAE001 (ATCC27853)
Outline: (§1)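 Growth inhibition was scored by CLSI broth microdilution using cation-adjusted Mueller-Hinton broth and a final inoculum between 3×10^5 and 7×10^5 CFU/mL, incubated 18-24 hours at 35° C.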

[2] = test system: AABA1060 (clinical isolate of Acinetobacter baumannii); experiment: MIC broth microdilution, AABA1060; assay type: cell-based; conditions: Acinetobacter baumannii, read-out: MIC AABA1060
Outline: as §1

[3] = test system: AECO001 (ATCC25922); experiment: MIC broth microdilution, AECO001; assay type: cell-based, E. coli; conditions: Escherichia coli
Outline: as §1

[4] = test system: APAE006 in the presence of 8 micrograms per milliliter of polymyxin B nonapeptide; assay type: cell-based, P. aeruginosa; conditions: APAE006 with 8 micrograms per milliliter polymyxin B nonapeptide
Outline: (§2)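 Inocula prepared from 0.5 McFarland suspensions (final 3×10^5–7×10^5 CFU/mL) were added to 2-fold drug dilution series in cation-adjusted Mueller-Hinton broth. Plates stood 18-24 hours at 35° C. under ambient air.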

[5] = test system: ASAU001 (laboratory strain of S. aureus, ATCC29213); experiment: MIC broth microdilution, ASAU001; assay type: cell-based; conditions: Staphylococcus aureus, ATCC29213, read-out: MIC ASAU001
Outline: as §1

[6] = test system: APAE006 (strain of P. aeruginosa in which all efflux pumps are inactivated); experiment: microbe, parasite or virus in culture; assay type: cell-based; conditions: Pseudomonas aeruginosa, read-out: MIC APAE006, APAE006, all efflux pumps inactivated
Outline: as §2

[7] = test system: AECO063 (ATCC25922 bearing an acrAB mutation); experiment: microbe, parasite or virus in culture; assay type: cell-based, E. coli; conditions: Escherichia coli, ATCC25922, read-out: MIC AECO063
Outline: as §1

[8] = ATCC25922, read-out: MIC AECO001
[9] = ATCC25922, read-out: MIC AECO001 HSA AGP

Row | SMILES | MIC [1] [µg/mL] | MIC [2] [µg/mL] | MIC [3, 8] [µg/mL] | MIC [3, 9] [µg/mL] | MIC APAE006 + PMBN [4] | MIC [5] [µg/mL] | MIC [6] [µg/mL] | MIC [7] [µg/mL]
1 | CC(C)(N)[C@H](NC(=O)c1ccc(C#C/C=C/c2ccccc2)cc1)C(=O)NO [Example 104-5] | 2 to 16 (≈ 5.3 to 42.4 µM) | < 2 | < 2 | < 2 | A (MIC's of 2.0 μg/mL or less = A) | 2 to 16 (≈ 5.3 to 42.4 µM) | < 2 | < 2
2 | C[C@@H](O)[C@H](NC(=O)c1ccc(C#C/C=C/c2ccncc2)cc1)C(=O)NO [Example 106-1, N-((1S,2R)-2-Hydroxy-1-hydroxycarbamoyl-propyl)-4-((E)-4-pyridin-4-yl-but-3-en-1-ynyl)-benzamide] | 16 to 64 (≈ 43.8 to 175 µM) | 16 to 64 (≈ 43.8 to 175 µM) | < 2 | 2 to 16 (≈ 5.47 to 43.8 µM) | A (MIC's of 2.0 μg/mL or less = A) | 16 to 64 (≈ 43.8 to 175 µM) | < 2 | < 2
3 | CC(C)(O)[C@H](NC(=O)c1ccc(C#C/C=C/c2ccncc2)cc1)C(=O)NO [Example 106-2] | 2 to 16 (≈ 5.27 to 42.2 µM) | 2 to 16 (≈ 5.27 to 42.2 µM) | < 2 | 2 to 16 (≈ 5.27 to 42.2 µM) | A (MIC's of 2.0 μg/mL or less = A) | 16 to 64 (≈ 42.2 to 169 µM) | < 2 | < 2
4 | C[C@@H](N)[C@H](NC(=O)c1ccc(C#C/C=C/c2ccncc2)cc1)C(=O)NO [Example 106-3] | < 2 | 16 to 64 (≈ 43.9 to 176 µM) | < 2 | 16 to 64 (≈ 43.9 to 176 µM) | A (MIC's of 2.0 μg/mL or less = A) | 16 to 64 (≈ 43.9 to 176 µM) | < 2 | < 2
5 | C[C@@H](N)[C@H](NC(=O)c1ccc(C#C/C=C/c2cccnc2)cc1)C(=O)NO [Example 106-4] | 2 to 16 (≈ 5.49 to 43.9 µM) | 16 to 64 (≈ 43.9 to 176 µM) | 2 to 16 (≈ 5.49 to 43.9 µM) | 16 to 64 (≈ 43.9 to 176 µM) | A (MIC's of 2.0 μg/mL or less = A) | 16 to 64 (≈ 43.9 to 176 µM) | < 2 | < 2
6 | CC(C)(O)[C@H](NC(=O)c1ccc(C#C/C=C/c2cccnc2)cc1)C(=O)NO [Example 106-5] | 2 to 16 (≈ 5.27 to 42.2 µM) | 2 to 16 (≈ 5.27 to 42.2 µM) | < 2 | 2 to 16 (≈ 5.27 to 42.2 µM) | A (MIC's of 2.0 μg/mL or less = A) | 16 to 64 (≈ 42.2 to 169 µM) | < 2 | < 2
7 | C[C@@H](N)[C@H](NC(=O)c1ccc(C#C/C=C/c2ccc(F)cc2)cc1)C(=O)NO [Example 106-6] | 2 to 16 (≈ 5.24 to 41.9 µM) | 2 to 16 (≈ 5.24 to 41.9 µM) | < 2 | 16 to 64 (≈ 41.9 to 168 µM) | A (MIC's of 2.0 μg/mL or less = A) | 16 to 64 (≈ 41.9 to 168 µM) | < 2 | < 2
8 | CC(C)(O)[C@H](NC(=O)c1ccc(C#C/C=C/c2ccc(F)cc2)cc1)C(=O)NO [Example 106-7] | 2 to 16 (≈ 5.05 to 40.4 µM) | 2 to 16 (≈ 5.05 to 40.4 µM) | < 2 | 2 to 16 (≈ 5.05 to 40.4 µM) | A (MIC's of 2.0 μg/mL or less = A) | 16 to 64 (≈ 40.4 to 161 µM) | < 2 | < 2
9 | CC(C)(O)[C@H](NC(=O)c1ccc(C#C/C=C/C2CC2)cc1)C(=O)NO [Example 107-1, 4-((E)-4-Cyclopropyl-but-3-en-1-ynyl)-N—((S)-2-hydroxy-1-hydroxycarbamoyl-2-methyl-propyl)-benzamide] | < 2 | 2 to 16 (≈ 5.84 to 46.7 µM) | < 2 | 2 to 16 (≈ 5.84 to 46.7 µM) | A (MIC's of 2.0 μg/mL or less = A) | 16 to 64 (≈ 46.7 to 187 µM) | < 2 | < 2
10 | C[C@@H](N)[C@H](NC(=O)c1ccc(C#C/C=C/C2CC2)cc1)C(=O)NO [Example 107-2] | < 2 | < 2 | < 2 | 2 to 16 (≈ 6.11 to 48.9 µM) | A (MIC's of 2.0 μg/mL or less = A) | 2 to 16 (≈ 6.11 to 48.9 µM) | < 2 | < 2
11 | C[C@@H](O)[C@H](NC(=O)c1ccc(C#C/C=C/C2CC2)cc1)C(=O)NO [Example 107-3] | < 2 | 2 to 16 (≈ 6.09 to 48.7 µM) | < 2 | 2 to 16 (≈ 6.09 to 48.7 µM) | A (MIC's of 2.0 μg/mL or less = A) | 16 to 64 (≈ 48.7 to 195 µM) | < 2 | < 2
12 | CC(C)(N)[C@H](NC(=O)c1ccc(C#C/C=C/C2CC2)cc1)C(=O)NO [Example 107-4] | < 2 | < 2 | < 2 | < 2 | A (MIC's of 2.0 μg/mL or less = A) | 2 to 16 (≈ 5.86 to 46.9 µM) | < 2 | < 2
